# Where two headings read alike, the source gives them in different places.
# Columns and labels:
# CYP2C9 [1] = target: CYP2C9 (Homo sapiens, UniProt P11712); test: In vitro CYP2C9 inhibition; assay type: biochemical
# CYP3A4 [2] = target: T1, CYP3A4 (Homo sapiens, UniProt P08684); test: In vitro CYP3A4 inhibition; assay type: biochemical
# CYP3A4 [3] = target: T1, CYP3A4; test: In vitro CYP3A4 inhibition; assay type: biochemical; remark: listed apart in the source
# Safety assessment = assay type: in vivo, patients with advanced solid tumors; settings: 23 patients
# CYP3A4 [4] = target: T1, CYP3A4; test: Predicted AUC ratios for CYP3A4 substrates; settings: dose (750 mg)/250 mL
# [5] = cancer patients; cited from earlier work
# CYP3A4 [6] = settings: among human CYP450 isoenzymes; cited from earlier work
# CYP2C9 [7] = settings: among human CYP450 isoenzymes; cited from earlier work
# [8] = warfarin 3 mg, apatinib 750 mg daily, vs single administration
# [9] = any grade, 750 mg apatinib daily
# T1 sequence (P08684 whole entry): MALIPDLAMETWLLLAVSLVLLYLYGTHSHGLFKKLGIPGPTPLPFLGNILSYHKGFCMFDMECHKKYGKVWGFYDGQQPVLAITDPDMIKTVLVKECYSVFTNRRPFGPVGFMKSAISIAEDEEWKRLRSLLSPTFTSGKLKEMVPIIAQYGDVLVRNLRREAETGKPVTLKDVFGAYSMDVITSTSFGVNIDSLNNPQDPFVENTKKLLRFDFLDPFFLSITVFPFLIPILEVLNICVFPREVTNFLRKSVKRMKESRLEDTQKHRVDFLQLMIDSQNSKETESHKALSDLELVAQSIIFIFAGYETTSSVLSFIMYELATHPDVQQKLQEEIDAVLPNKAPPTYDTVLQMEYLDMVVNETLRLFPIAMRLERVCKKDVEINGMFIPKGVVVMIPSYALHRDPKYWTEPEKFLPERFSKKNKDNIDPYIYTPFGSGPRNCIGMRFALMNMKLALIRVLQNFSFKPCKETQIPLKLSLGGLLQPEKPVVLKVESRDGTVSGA
# CYP2C9 (Homo sapiens, UniProt P11712), sequence (P11712 whole entry): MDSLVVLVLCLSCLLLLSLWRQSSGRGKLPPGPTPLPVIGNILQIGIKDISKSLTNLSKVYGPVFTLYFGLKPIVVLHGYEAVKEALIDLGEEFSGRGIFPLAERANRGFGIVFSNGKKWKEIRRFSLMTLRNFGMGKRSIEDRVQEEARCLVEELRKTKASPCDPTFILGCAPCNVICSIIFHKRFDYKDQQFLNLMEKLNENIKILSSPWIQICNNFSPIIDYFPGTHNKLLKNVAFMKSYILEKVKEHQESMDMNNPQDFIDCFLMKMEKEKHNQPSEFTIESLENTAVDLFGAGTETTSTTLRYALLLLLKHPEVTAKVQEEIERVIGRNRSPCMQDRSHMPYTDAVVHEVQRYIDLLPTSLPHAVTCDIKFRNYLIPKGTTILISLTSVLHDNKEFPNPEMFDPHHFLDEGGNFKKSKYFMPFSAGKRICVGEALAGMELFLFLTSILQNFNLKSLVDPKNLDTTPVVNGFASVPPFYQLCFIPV
smiles,measurement,setting,value
"CC(=O)C[C@@H](c1ccccc1)c1c(O)c2ccccc2oc1=O [S-Warfarin, S-warfarin]",AUC0-∞,"3 mg warfarin oral + 750 mg apatinib daily, N=20, GMean (CV%)",12600 (35.0) h×ng/mL
same,Tmax,"3 mg warfarin oral + 750 mg apatinib daily, N=20, median (range)",1.00 (0.500–3.00) h
same,AUC0-∞,"3 mg warfarin oral, alone, N=23, GMean (CV%)",5190 (26.8) h×ng/mL
same,Tmax,"3 mg warfarin oral, alone, N=23, median (range)",0.500 (0.500–3.00) h
same,Difference of Tmax before and after coadministration of apatinib,"S-warfarin, Wilcoxon signed-rank test",no significant difference
same,Increase of AUC0–t (exposure) on coadministration with apatinib,[8],92%
same,Increase of Cmax on coadministration with apatinib,[8],24%
N#CC1(c2ccc(NC(=O)c3cccnc3NCc3ccncc3)cc2)CCCC1 [apatinib],IC50,CYP2C9 [1],440 nM
same,Ki,CYP2C9 [1],310 nM
same,IC50,CYP3A4 [2],1800 nM
same,Ki,CYP3A4 [2],710 nM
same,IC50,CYP3A4 [3],830 nM
same,Ki,CYP3A4 [3],270 nM
same,Incidence of bilirubin increased (adverse event related to apatinib),Safety assessment; [9],21.7%
same,Incidence of fatigue (adverse event related to apatinib),Safety assessment; [9],21.7%
same,Incidence of hand-foot syndrome (adverse event related to apatinib),Safety assessment; [9],17.4%
same,Incidence of headache (adverse event related to apatinib),Safety assessment; [9],47.8%
same,Incidence of hypertension (adverse event related to apatinib),Safety assessment; [9],73.9%
same,Incidence of leukopenia (adverse event related to apatinib),Safety assessment; [9],21.7%
same,Incidence of proteinuria (adverse event related to apatinib),Safety assessment; [9],26.1%
same,Incidence of thrombocytopenia (adverse event related to apatinib),Safety assessment; [9],30.4%
same,Incidence of grade 3/4 drug-related hypertension,"Safety assessment; grade 3/4, 750 mg apatinib daily",17.4%
same,Igut,CYP3A4 [4],6078 µM
same,t1/2,[5],8.01 to 10.2 h
same,Contribution of CYP3A4 to the in vitro (oxidative) metabolism,CYP3A4 [6],62.6%
same,Contribution of CYP2C9 to the oxidative metabolism,CYP2C9 [7],13.1%

# From paper PMC7246325 (Drug Design, Development and Therapy, 2020)
